Assay results published in paper PMC3968228 (Cancer chemotherapy and pharmacology, 2014).

What was measured:
[1] = for elimination pattern of docetaxel concentration-time profile: docetaxel 20 mg/kg i.v., male FVB mice
[2] = with ritonavir; cited from earlier work
[3] = three new patients on ritonavir-based cART, docetaxel 70 to 100 mg/m^2; cited from earlier work
[4] = male, FVB, mouse, plasma, iv, 20 mg/kg

## CC(=O)N1CCN(c2ccc(OCC3COC(Cn4ccnc4)(c4ccc(Cl)cc4Cl)O3)cc2)CC1 (stereo not shown) [ketoconazole, Ketoconazole]
[1]; plasma
  elimination pattern of docetaxel concentration-time profile: biphasic

## CC(C)c1nc(CN(C)C(=O)N[C@H](C(=O)N[C@@H](Cc2ccccc2)C[C@H](O)[C@H](Cc2ccccc2)NC(=O)OCc2cncs2)C(C)C)cs1 [ritonavir, Ritonavir]
[2]
  oral bioavailability of docetaxel: 130-160 % of control

## O=C1Nc2ccc(Cl)cc2[C@@](C#CC2CC2)(C(F)(F)F)O1 [efavirenz, Efavirenz]
[1]; CYP3A4 inducers p.o. x4d before docetaxel 20 mg/kg i.v.
  effect on docetaxel exposure (AUC): did not have a significant effect
[1]; plasma
  elimination pattern of docetaxel concentration-time profile: triphasic

## CC(=O)O[C@@]12CO[C@@H]1C[C@H](O)[C@@]1(C)C(=O)[C@H](O)C3=C(C)[C@@H](OC(=O)[C@H](O)[C@@H](NC(=O)OC(C)(C)C)c4ccccc4)C[C@@](O)([C@@H](OC(=O)c4ccccc4)[C@H]21)C3(C)C [Docetaxel]
[3]
  toxicity: severe toxicities
[1]; plasma
  elimination pattern of docetaxel concentration-time profile: triphasic
[1]; [4]
  AUC(0-inf): 10300 ng·h/mL
  Cmax: 18100 ± 2200 ng/mL
  clearance: 32.2 mL/min/kg
  concentration at 24 hr: 9 ± 0.7 ng/mL
